The structures appear in SMILES notation.

The target in this assay is T1, human Nox2 (Homo sapiens, UniProt P04839).
T1 construct: host or cells: T-REx-CHO (hNOX2 T-REx-CHO), tetracycline-induced; membrane fraction
T1 sequence (P04839 2-570 limits assumed): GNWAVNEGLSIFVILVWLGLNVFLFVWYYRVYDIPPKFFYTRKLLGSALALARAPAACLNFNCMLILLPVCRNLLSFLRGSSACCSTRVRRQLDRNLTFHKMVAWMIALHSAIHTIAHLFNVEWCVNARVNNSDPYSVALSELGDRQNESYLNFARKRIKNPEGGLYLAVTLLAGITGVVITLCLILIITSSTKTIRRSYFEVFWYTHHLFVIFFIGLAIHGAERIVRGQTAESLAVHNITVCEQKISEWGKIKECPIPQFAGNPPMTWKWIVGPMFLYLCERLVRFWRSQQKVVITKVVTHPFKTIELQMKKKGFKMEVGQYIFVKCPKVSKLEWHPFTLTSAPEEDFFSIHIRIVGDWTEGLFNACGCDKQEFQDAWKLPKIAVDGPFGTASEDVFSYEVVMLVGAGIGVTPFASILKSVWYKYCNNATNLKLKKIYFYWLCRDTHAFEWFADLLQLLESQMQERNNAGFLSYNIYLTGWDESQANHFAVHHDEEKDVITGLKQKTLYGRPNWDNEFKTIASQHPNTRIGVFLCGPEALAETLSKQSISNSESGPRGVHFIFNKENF
T1 sequence (P13498 2-195 partner limits assumed): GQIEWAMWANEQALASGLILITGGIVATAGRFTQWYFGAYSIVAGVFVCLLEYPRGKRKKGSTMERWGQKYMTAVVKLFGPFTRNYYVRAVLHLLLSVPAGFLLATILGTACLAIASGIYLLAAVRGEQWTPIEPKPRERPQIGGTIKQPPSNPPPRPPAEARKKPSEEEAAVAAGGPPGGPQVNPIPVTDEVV
Kind of assay: ROS production by membranes expressing human Nox2, cell-free Amplex Red assay. The assay is classed as biochemical. The note with it: cell-free membranes, Amplex Red; Cheng-Prusoff; average of at least three experiments in triplicate; read-out: Ki hNox2. Summed up:
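Membranes from tetracycline-induced (1 μg/ml, 24 h) T-REx-CHO cells stably expressing hNox2 with p22 and cofactors, incubated in PBS with Amplex Red, HRP and cofactors; NADPH starts ROS production. Compounds 1 nM–100 μM, 20 min at 37 °C, then fluorescence (544/590 nm) read for 10 min; Ki by Cheng-Prusoff.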

The term Ki denotes a measure of affinity in units of concentration, obtained from inhibition or displacement. Turning to `COc1ccc(-c2c3c(=O)n(-c4ccccc4OC)[nH]c3cc(=O)n2Cc2cccnc2)c(F)c1` [Compound (1), 4-(2-fluoro-4-methoxyphenyl)-2-(2-methoxyphenyl)-5-(pyridin-3-ylmethyl)-1H-pyrazolo[4,3-c]pyridine-3,6(2H,5H)-dione], the inhibition constant (Ki) is 813 nM.
